Results from article PMC2700083, “A covalent peptide inhibitor of RGS4 identified in a focused one-bead, one compound library screen” (BMC Pharmacology, 2009).
Values joined by “and” are separate entries in the source; they are usually repeats but may differ in a detail not shown here. Equal entries are not always repeated. Where two headings read alike, the source gives them in different places. Where a SMILES comes first, the peptide text is derived from it. Bridges are numbered along the chain shown (N, C = ends).

What was measured:
RGS19 = target: T1, RGS19 (Homo sapiens, UniProt P49795); experiment: FCPIA, Gαo binding to RGS19; conditions: Figure 2
T1 construct: RGS19ΔC11 (amino acids 1–209); made in house
T1 sequence (P49795 1-209): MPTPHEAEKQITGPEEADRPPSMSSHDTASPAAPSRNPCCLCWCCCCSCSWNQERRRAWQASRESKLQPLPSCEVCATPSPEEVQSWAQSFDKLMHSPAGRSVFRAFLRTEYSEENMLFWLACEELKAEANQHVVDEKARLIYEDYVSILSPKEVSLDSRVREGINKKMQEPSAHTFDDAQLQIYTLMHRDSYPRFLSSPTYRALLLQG
Experimental: We recently described a bead-based screen in which 2.5 × 10^6 different peptide sequences were prepared as a OBOC library. Fluorescently labeled RGS4 was used to probe the library for peptides that bind RGS4 [5]. […] Since the majority of those hit peptides could bind tightly to the RGS without disrupting GAP activity, they were also tested in the flow cytometry protein interaction assay (FCPIA) (Figure 1), which measures the interaction between RGS4 and Gαo. In this method we used a Luminex flow cytometer to detect the binding of Alexa Fluor 532-labeled Gαo to biotinylated RGS4 on avidin beads in the presence of AMF (AlCl3, MgCl2, NaF and GDP) to put the Gα subunit into a transition state-like conformation. Peptides were tested at 50 μM except where limited by solubility (Table 1).
5nd inhibited Gαo binding to a number of different RGS proteins (Figure 2). […] RGS19 and RGS7 are in the RZ and R7 families, respectively and show less inhibition by 5nd. Linear as well as bridged versions of peptide 5 were tested in the FCPIA since cyclization yields would most likely have been less then 100% in the synthesis of the library leaving some linear peptides present on each bead. […] This may be due to lack of structural rigidity necessary for the correct interaction of the peptide with the RGS protein or a role for chemical reactivity of the disulfide.
Figure 2 Characterization of hit 5. […]

RGS4 C148A = target: T2, RGS4 C148A (Rattus norvegicus, UniProt P49799, C148A); experiment: FCPIA, RGS4 cysteine mutant C148A; assay type: binding; conditions: read-out: 5nd logIC50 (converted)
T2 construct: made in house
T2 sequence (P49799 52-205 C148A limits assumed): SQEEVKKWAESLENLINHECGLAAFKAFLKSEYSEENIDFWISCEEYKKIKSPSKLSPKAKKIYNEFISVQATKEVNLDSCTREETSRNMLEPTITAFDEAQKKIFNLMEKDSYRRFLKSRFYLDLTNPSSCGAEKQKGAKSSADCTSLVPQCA
Experimental: Figure 5 Dose curves of 5nd on various RGS4 cysteine mutants. Various concentrations of 5nd were tested for disruption of the RGS4-Gαo interaction for C95A (5 nM), or […], C71A (5nM) or C148A (5nM) (B), A95C in the -7C (5nM), or A132C in the -7C (5nM) (C), A71C in the -7C (5nM), or A148C in the -7C (5nM) (D) or the mutant with no cysteines in the domain (20 nM) or the C-terminus (20 nM) (E) in the FCPIA (mean ± S.E.M., n ≥ 3).
Proteins were expressed, purified and labeled as described previously. The mutagenesis was done using the "QuickChange Multi Site-Directed Mutagenesis Kit" from Stratagene according to the manufacturer's protocol. The construct of RGS4 used in these studies is a maltose binding protein (MBP-) fusion protein of the RGS4 sequence from which the amphipathic N-terminal helix has been removed (i.e. MBP-RGS4Δ51N). For simplicity in the text, this will be referred to as RGS4. All other RGS proteins were human sequences and were used as Mpb fusions: RGS7 RGS domain (aa: 305–453), RGS8 full length, RGS16 full length, and RGS19ΔC11 (amino acids 1–209). To cleave RGS4Δ51N from the MBP-His6 construct for MS analysis, MBP-His6-RGS4Δ51N was treated with 15% MBP-His6-TEV protease S219V [11] for 22 hours at 4°C and purified over a Ni-NTA column.
FCPIA was performed as previously published.

RGS4Δ51N = target: T3, RGS4Δ51N (Rattus norvegicus, UniProt P49799); experiment: MALDI MS analysis of covalent adduct with RGS4Δ51N; conditions: 250 μM 5nd
T3 construct: MBP (N, cleaved yes); His6 (N, cleaved yes); made in house
T3 sequence (P49799 52-205 limits assumed): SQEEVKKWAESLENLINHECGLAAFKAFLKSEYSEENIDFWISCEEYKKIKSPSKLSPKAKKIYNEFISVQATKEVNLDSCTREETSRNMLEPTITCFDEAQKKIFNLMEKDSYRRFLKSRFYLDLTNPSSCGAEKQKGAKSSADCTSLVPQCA
Experimental: To directly test for the formation of a covalent adduct between 5nd and RGS4, we performed mass spectrometry (MS) analysis. The RGS4Δ51N protein, following TEV-protease cleavage from the MBP-His6 construct, was treated with 5nd at a 50:1 molar ratio. An adduct to the protein that is consistent with the mass of 5nd binding through a disulfide bridge was observed by MS (Figure 4, mass shift observed: Δ999.2 ± 1; expected: Δ998.5). […] There is also a small peak that may represent two peptides per RGS (observed: Δ1999.1 ± 2; expected: Δ1997.0).
Figure 4 MS analysis of RGS4 with and without 5nd pretreatment. RGS4Δ51N was cleaved from the MBP-His6 construct and subject to MALDI MS after pretreatment with DMSO (A) or 5nd (250 μM) (B). Both spectra show the region between 4,000 and 30,000 m/z and have the peak at 18158.8 or 18158.2 m/z for A and B, respectively, which corresponds to the cleaved RGS4Δ51N protein (black arrows). The spectrum in B also has a peak at 19158 m/z that corresponds to a peptide adduct (grey arrows). There is a very small peak at 20157.9 that may correspond to 2 peptides per RGS (grey arrows). The inset is a blow-up of the region between 17500 and 20500 m/z.
Total mass MS of 5 μM RGS4Δ51N was analyzed on a MicroMX MALDI MS instrument in positive ion mode with an accuracy of ± 0.1% after pretreatment with DMSO or 250 μM 5nd. […]

`CC(C)C[C@@H]1NC(=O)CNC(=O)[C@H](CCCCN)NC(=O)[C@@H](NC(=O)[C@H](Cc2c[nH]c3ccccc23)NC(=O)[C@@H](N)Cc2ccc(O)cc2)CSSC[C@@H](C(=O)N[C@@H](CCCCN)C(N)=O)NC1=O` [Peptide 5nd, Tyr-Trp-c [Cys-Lys-Gly-Leu-Cys]-Lys-NH2, S-S] (H-YWCKGLCK-NH2; disulfide 3-7) was tested, and the IC50 (RGS19; read-out: logIC50, RGS19 (converted)) was roughly 145 µM, the IC50 (RGS19; dose response, read-out: IC50, Gαo binding to RGS19) was 145 µM and ~145 µM and the IC50 (RGS4 C148A) was 53.7 µM. The “mass shift observed, adduct of one peptide per RGS” value (RGS4Δ51N; 5 μM RGS4Δ51N (50:1), expected Δ998.5) was 999.2 ± 1 and the “mass shift observed, small peak that may represent two peptides per RGS” value (RGS4Δ51N; 5 μM RGS4Δ51N, expected Δ1997.0) was 1999.1 ± 2.
